Results on one substance are retold here after patent US20120083522A1, “MODULATION OF INFLAMMATORY RESPONSES BY FACTOR XI” (Isis Pharmaceuitcals, inc., priority 2009, published 2012).

The test system of series [1] is human Factor XI mRNA. Nature of the series: Antisense inhibition in HepG2 cells by microwalk gapmers, 8,000 nM, electroporation (Example 14). In kind it is cell-based. Particulars: HepG2 cells, 8,000 nM. The method in brief: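 HepG2 cells electroporated with 8,000 nM 2′-MOE phosphorothioate gapmer (5-10-5, 5-8-5 or 6-8-6). Factor XI mRNA measured after ~24 h by qRT-PCR, normalised to RIBOGREEN total RNA. Reported as percent inhibition versus untreated cells.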

Series [2] concerns human Factor XI mRNA. The series can be described thus: Dose-dependent inhibition in cyno primary hepatocytes, electroporation (Example 6). In kind it is cell-based, cynomolgus monkey. Particulars: approx. 16 h. The method in brief:
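Cyno primary hepatocytes electroporated with antisense oligonucleotide at 0.74, 2.2, 6.7, 20, 60 and 180 nM and treated ~16 h. Factor XI mRNA measured by qRT-PCR (primer probe set RTS 2966), normalised to total RNA by RIBOGREEN; percent inhibition relative to untreated cells.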

Series [3] relates to human Factor XI mRNA. The series can be described thus: Dose-dependent inhibition in HepB3 cells, electroporation (Example 7). It is filed as cell-based. As to conditions: approx. 16 h. The method in brief: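 HepB3 cells electroporated with gapmer at 41.15, 123.457, 370.37, 1111.11, 3333.33 and 10,000 nM; ~16 h treatment. Factor XI mRNA quantified by qRT-PCR (primer probe set RTS 2966), normalized to RIBOGREEN total RNA; percent inhibition versus untreated control cells.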

Series [4] relates to human Factor XI mRNA. The series can be described thus: Dose-dependent inhibition in HepG2 cells, electroporation (Example 4). It is filed as cell-based. As to conditions: 16 hours. The method in brief: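 HepG2 cells electroporated with 0.7, 2.2, 6.7 or 20 μM antisense gapmer and harvested after ~16 h. Factor XI mRNA quantified by qRT-PCR (primer probe set RTS 2966), normalised to total RNA (RIBOGREEN). Reported as percent inhibition versus untreated control cells.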

The nature of series [5]: Tolerability in Sprague-Dawley rats: kidney function (Example 19). In kind it is in vivo. As to conditions: Sprague Dawley rats. An excerpt:
Urine samples were taken before the start of treatment.

Series [6] has as its system human Factor XI mRNA. Nature of the series: Dose-dependent inhibition in HepG2 cells, lipofectin (Example 4). It is filed as cell-based. As to conditions: 16 hours. The method in brief: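 HepG2 cells at 10,000 per well were lipofectin-transfected with 9.375, 18.75, 37.5 or 75 nM antisense oligonucleotide for about 16 h. Factor XI mRNA was quantified by real-time PCR (primer probe set RTS 2966) and normalised to RIBOGREEN total RNA. Values are percent inhibition versus untreated cells.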

As to “416864 (antisense GGCAGCGGACGGCATTGGTG; 5-10-5 gapmer, wing sugar chemistry not given here, further chemistry not given here) [compound 416864]”, the “Percent inhibition of human Factor XI mRNA levels” value in series [1] was 88%. Besides, the “percent inhibition of human Factor XI mRNA” value in series [2] (0.74 nM) stood at 0%; in series [2] (2.2 nM) it was 1%; in series [2] (6.7 nM), 15%; in series [2] (20 nM), 23%; in series [2] (60 nM) it was 47%; in series [2] (180 nM) it was 64%. The “percent inhibition of human Factor XI mRNA” value in series [3] (41.15 nM) was found to be 4%; in series [3] (123.457 nM), 3%; in series [3] (370.37 nM), 6%; in series [3] (1111.11 nM), 35%; in series [3] (3333.33 nM), 75%; in series [3] (10000 nM) it was 87%. Further, the “percent inhibition of Factor XI mRNA, relative to untreated control cells” value in series [4] (0.7 μM) is 32%; in series [4] (2.2 μM) it was 65%; in series [4] (6.7 μM), 78%; in series [4] (20 μM), 90%; in series [6] (9.375 nM), 18%; in series [6] (18.75 nM) it was 43%. Further, the figures for the “percent inhibition of Factor XI mRNA, relative to untreated control cells” value in series [6] (37.5 nM) and in series [6] (75 nM) were 62% and 78%, respectively. Further, in series [5] (after 50 mg/kg s.c. twice per week for 6 weeks), the “urine protein/creatinine ratio, After” value stood at 4.0. Besides, in series [5] (before antisense oligonucleotide treatment), the “urine protein/creatinine ratio, Before” value was determined as 1.2.
